The subject of the assay is 276233-004-R-J1-PDC KRAS spheroids with HUVEC/MSC, viability. The assay is described as follows: Anticancer human tumor 276233-004-R-J1-PDC patient-derived colon adenocarcinoma cell line growth inhibition [KRAS2]. As to conditions: for viability, T/C: stronger effect = lower value. Summed up:
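Combination screen of spheroid viability in tumor-cell co-cultures with endothelial (HUVEC) and mesenchymal stem cell stroma. Each agent was tested in half-log dilutions, topping at clinical Cmax or at 10 microM without a known Cmax.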

Where [1] appears, read: curve of first compound, second compound 0.1 µM.
[2] abbreviates: curve of first compound, second compound 0.316 µM.
Where [3] appears, read: curve of first compound, second compound 1 µM.
The mark [4] stands for this setting: curve of first compound, second compound 3.16 µM.
Where [5] appears, read: second compound 0.1 µM, first compound 0.0316 µM.
The mark [6] stands for this setting: second compound 0.1 µM, first compound 0.1 µM.
Where [7] appears, read: second compound 0.316 µM, first compound 0.0316 µM.
Where [8] appears, read: second compound 0.316 µM, first compound 0.1 µM.
[9] abbreviates: second compound 1 µM, first compound 0.0316 µM.
The mark [10] stands for this setting: second compound 1 µM, first compound 0.1 µM.
The mark [11] stands for this setting: second compound 3.16 µM, first compound 0.0316 µM.
Where [12] appears, read: second compound 3.16 µM, first compound 0.1 µM.
[13] abbreviates: curve of first compound, second compound 10 µM.
Setting [14] is: second compound 0.1 µM, first compound 0.316 µM.
The mark [15] stands for this setting: second compound 0.1 µM, first compound 1 µM.
Where [16] appears, read: second compound 0.1 µM, first compound 3.16 µM.
The mark [17] stands for this setting: second compound 0.1 µM, first compound 10 µM.
The mark [18] stands for this setting: second compound 0.316 µM, first compound 0.316 µM.
Setting [19] is: second compound 0.316 µM, first compound 1 µM.
Where [20] appears, read: second compound 0.316 µM, first compound 3.16 µM.
[21] abbreviates: second compound 0.316 µM, first compound 10 µM.
Where [22] appears, read: second compound 1 µM, first compound 0.316 µM.
[23] abbreviates: second compound 1 µM, first compound 1 µM.
Setting [24] is: second compound 1 µM, first compound 3.16 µM.
Setting [25] is: second compound 1 µM, first compound 10 µM.
Setting [26] is: second compound 3.16 µM, first compound 0.316 µM.
The mark [27] stands for this setting: second compound 3.16 µM, first compound 1 µM.
[28] abbreviates: second compound 3.16 µM, first compound 3.16 µM.
Where [29] appears, read: second compound 3.16 µM, first compound 10 µM.
The mark [30] stands for this setting: second compound 10 µM, first compound 0.0316 µM.
Setting [31] is: second compound 10 µM, first compound 0.1 µM.
The mark [32] stands for this setting: second compound 10 µM, first compound 0.316 µM.
[33] abbreviates: second compound 10 µM, first compound 1 µM.
[34] abbreviates: second compound 10 µM, first compound 3.16 µM.
Where [35] appears, read: second compound 10 µM, first compound 10 µM.

Molecules are shown by their SMILES. Where “and” joins values, the source holds several entries; their conditions need not be identical. Identical values can stand only once.
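Further: cells exposed to agents for seven days before viability read.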
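Wherever viability, T/C is given: 100% = DMSO vehicle control wells and lower values mean fewer viable cells.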

With `CN(C)C/C=C/C(=O)Nc1cc2c(Nc3ccc(F)c(Cl)c3)ncnc2cc1O[C@H]1CCOC1` + C=CC(=O)N1CCN(c2nc(OCC3CCCN3C)nc3c2CCN(c2cccc4cccc(C)c24)C3)CC1CC#N, the half-maximal inhibitory concentration (IC50) – broadly, the concentration at which inhibition is half-maximal – (curve of first compound, second compound 0.0316 µM) is more than 100 nM; the 50% inhibitory concentration (IC50) under setting [1] is more than 100 nM; the half-maximal inhibitory concentration (IC50) under setting [2] was more than 100 nM; the IC50 under setting [3] was more than 100 nM; the half-maximal inhibitory concentration (IC50) under setting [4] was 0.902 nM. Moreover, the viability, T/C (commonly the result in the treated group divided by that in the control group, in per cent) by setting is: (second compound 0.0316 µM, first compound 0.000316 µM) 112%; (second compound 0.0316 µM, first compound 0.001 µM) 114%; (second compound 0.0316 µM, first compound 0.00316 µM) 91.3%; (second compound 0.0316 µM, first compound 0.01 µM) 102%; (second compound 0.0316 µM, first compound 0.0316 µM) 97.4%; (second compound 0.0316 µM, first compound 0.1 µM) 86.3%. Further, the viability, T/C runs as follows: (second compound 0.1 µM, first compound 0.000316 µM) 116%; (second compound 0.1 µM, first compound 0.001 µM) 93.8%; (second compound 0.1 µM, first compound 0.00316 µM) 91.3%; (second compound 0.1 µM, first compound 0.01 µM) 85%; under setting [5], 88%; under setting [6], 85.7%. For the same molecule, the viability, T/C was 87% (second compound 0.316 µM, first compound 0.000316 µM); 110% (second compound 0.316 µM, first compound 0.001 µM); 91.9% (second compound 0.316 µM, first compound 0.00316 µM); 78.3% (second compound 0.316 µM, first compound 0.01 µM); 81.5% under setting [7]; 72.2% under setting [8]. Further, the viability, T/C reads like this: (second compound 1 µM, first compound 0.000316 µM) 84.8%; (second compound 1 µM, first compound 0.001 µM) 78.8%; (second compound 1 µM, first compound 0.00316 µM) 70.5%; (second compound 1 µM, first compound 0.01 µM) 83.6%; under setting [9], 84.2%; under setting [10], 78.7%. Also, the viability, T/C (second compound 3.16 µM, first compound 0.000316 µM) was 67.5%; the viability, T/C (second compound 3.16 µM, first compound 0.001 µM) is 52.7%; the viability, T/C (second compound 3.16 µM, first compound 0.00316 µM) is 37.8%; the viability, T/C (second compound 3.16 µM, first compound 0.01 µM) was 27.6%; the viability, T/C under setting [11] is 53.2%; the viability, T/C under setting [12] was 47.7%.

Regarding `CC1(C)CCC(CN2CCN(c3ccc(C(=O)NS(=O)(=O)c4ccc(NCC5CCOCC5)c([N+](=O)[O-])c4)c(Oc4cnc5[nH]ccc5c4)c3)CC2)=C(c2ccc(Cl)cc2)C1`, the viability, T/C reads like this: (compound 0.0316 µM) 93.5% [middle of 5 runs]; (compound 0.1 µM) 88.8% [middle of 5 runs]; (compound 0.316 µM) 102% [middle of 5 runs]; (compound 1 µM) 93.4% [middle of 5 runs]. Besides, under “curve of compound”, the IC50 is more than 10000 nM.

Consider `C=CC(=O)N1CCN(c2nc(OCC3CCCN3C)nc3c2CCN(c2cccc4cccc(C)c24)C3)CC1CC#N` (configuration not stated), for which the half-inhibitory concentration (IC50) (compound alone, run of 07/12/2021) was > 3160 nM and 2820 nM; the half-maximal inhibitory concentration (IC50) (compound alone, run of 07/19/2021) was > 3160 nM and 2570 nM and 2490 nM; the IC50 (compound alone, run of 07/26/2021) was more than 3160 nM.

Consider `Cn1ncnc1[C@H]1c2n[nH]c(=O)c3cc(F)cc(c23)N[C@@H]1c1ccc(F)cc1`, for which the viability, T/C is, setting by setting: (compound 0.000316 µM) 96.7% [middle of 5 runs]; (compound 0.001 µM) 101% [middle of 5 runs]; (compound 0.1 µM) 102% [middle of 5 runs]. Where the note is “curve of compound”, the IC50 is more than 100 nM.

As for `COC(=O)c1ccc2c(C(=Nc3ccc(N(C)C(=O)CN4CCN(C)CC4)cc3)c3ccccc3)c(O)[nH]c2c1` + COc1cc2nc(C)nc(NC(C)c3cc(N)cc(C(F)(F)F)c3)c2cc1OC1CCOC1, the concentration for half-maximal inhibition (IC50) under setting [1] was more than 10000 nM; the IC50 under setting [2] is more than 10000 nM; the IC50 under setting [3] is more than 10000 nM; the 50% inhibitory concentration (IC50) under setting [4] turned out to be 2750 nM; the 50% inhibitory concentration (IC50) under setting [13] is less than 31.6 nM. Further, the viability, T/C reads like this: under setting [5], 96.3%; under setting [6], 77%; under setting [14], 80.4%; under setting [15], 83.1%; under setting [16], 70%; under setting [17], 83.7%. In addition, the viability, T/C by setting is: under setting [7], 94.1%; under setting [8], 71.5%; under setting [18], 74.2%; under setting [19], 65.3%; under setting [20], 70%; under setting [21], 74.2%. Also, the viability, T/C reads like this: under setting [9], 78.6%; under setting [10], 80.9%; under setting [22], 70%; under setting [23], 70.2%; under setting [24], 62.9%; under setting [25], 61.6%. Besides, the viability, T/C by setting is: under setting [11], 72.1%; under setting [12], 66.6%; under setting [26], 58.7%; under setting [27], 51.5%; under setting [28], 54.7%; under setting [29], 6.87%. Besides, the viability, T/C is 24.1% under setting [30]; 25.9% under setting [31]; 30.9% under setting [32]; 20.9% under setting [33]; 13.8% under setting [34]; 1.87% under setting [35].

In the case of `O=C(c1cc(Cc2n[nH]c(=O)c3ccccc23)ccc1F)N1CCN(C(=O)C2CC2)CC1` + CNCc1ccccc1-c1csc(C(C)Nc2nc(C)nc3cc(OC)c(OC)cc23)c1, the IC50 runs as follows: under setting [1], more than 10000 nM; under setting [2], more than 10000 nM; under setting [3], more than 10000 nM; under setting [4], less than 31.6 nM; under setting [13], less than 31.6 nM. The viability, T/C runs as follows: under setting [5], 98.5%; under setting [6], 99.5%; under setting [14], 84.5%; under setting [15], 87.5%; under setting [16], 110%; under setting [17], 96.5%. Also, the viability, T/C is, setting by setting: under setting [7], 103%; under setting [8], 80.8%; under setting [18], 90.3%; under setting [19], 85.3%; under setting [20], 84%; under setting [21], 68.7%. Further, the viability, T/C under setting [9] is 99.2%; the viability, T/C under setting [10] is 86.8%; the viability, T/C under setting [22] was 88.5%; the viability, T/C under setting [23] was 73.8%; the viability, T/C under setting [24] is 87.1%; the viability, T/C under setting [25] is 78.2%. Besides, the viability, T/C is 5.86% under setting [11]; 1.28% under setting [12]; 0.99% under setting [26]; 1.9% under setting [27]; 1.8% under setting [28]; 2.47% under setting [29]. Moreover, the viability, T/C is 3.64% under setting [30]; 5.22% under setting [31]; 3.94% under setting [32]; 5.16% under setting [33]; 0.77% under setting [34]; 1.05% under setting [35].

The values are drawn from PubChem BioAssay AID1963873 (Molecular Pharmacology Branch, DTP, NCI, 2024).
